Experiments:
[1] = system: Zucker diabetic fatty (ZDF) rats; test: Oral glucose tolerance test in ZDF rats; assay type: in vivo; details: overnight fasted 12-weeks old male ZDF rats; single dose; Cpd. A 3 mg/kg oral, exendin-4 0.01 mg/kg subcutaneous; oral glucose 2 g/kg; blood glucose up to 120 min
Method: An oral glucose tolerance test was performed in overnight fasted 12-weeks old male Zucker diabetic fatty (ZDF) rats (ZDF/CRL-Lepr^fa). A pre-dose blood sample was obtained by tail bleed. Blood glucose was measured with a glucometer, and the animals were randomized for blood glucose (n=5/group). Subsequently, the groups received a single oral administration of either vehicle alone (0.5% aqueous hydroxyethylcellulose) or this vehicle containing the glucopyranosyl-substituted benzene derivative. […] The animals were orally dosed with glucose (2 g/kg) 30 min after the subcutaneous injection. Blood glucose was measured in tail blood 15 min, 30 min, 60 min, 90 min, and 120 min thereafter. Glucose excursion was quantified by calculating the reactive glucose AUC. The data are presented as mean±S.E.M. The two-sided unpaired Student's t-test was used for statistical comparison of the groups. A p value<0.05 was considered to show a statistically significant difference.

[2] = metformin on its own, in the diabetic; cited from earlier work

Row | Structure (SMILES) | reduction of glucose excursion (reactive glucose AUC) [1] [%] | average improvement in the HbA1c value [2]
1 | OC[C@H]1O[C@@H](c2ccc(Cl)c(Cc3ccc(O[C@H]4CCOC4)cc3)c2)[C@H](O)[C@@H](O)[C@@H]1O [Cpd. A] | 57 | 
2 | CN(C)C(=N)N=C(N)N [metformin] |  | 1.0-1.5%

Source: patent US20130035281A1, “PHARMACEUTICAL COMPOSITION, METHODS FOR TREATING AND USES THEREOF” (BOEHRINGER INGELHEIM INTERNATIONAL GMBH, priority 2011, published 2013)
